The record followed here is patent US6890933B1, “Kinesin inhibitors” (President and Fellows of Harvard College, priority 2000, dated 2005).

In one test the target is T1, human Eg5 (Homo sapiens, UniProt P52732).
T1 construct: human Eg5 (N-terminal 405 amino acids and 6-His tagged at C terminus); made in house; host or cells: E. coli BL21 pLysS (DE3), plasmid pRSETa
T1 sequence (P52732 1-405 limits assumed): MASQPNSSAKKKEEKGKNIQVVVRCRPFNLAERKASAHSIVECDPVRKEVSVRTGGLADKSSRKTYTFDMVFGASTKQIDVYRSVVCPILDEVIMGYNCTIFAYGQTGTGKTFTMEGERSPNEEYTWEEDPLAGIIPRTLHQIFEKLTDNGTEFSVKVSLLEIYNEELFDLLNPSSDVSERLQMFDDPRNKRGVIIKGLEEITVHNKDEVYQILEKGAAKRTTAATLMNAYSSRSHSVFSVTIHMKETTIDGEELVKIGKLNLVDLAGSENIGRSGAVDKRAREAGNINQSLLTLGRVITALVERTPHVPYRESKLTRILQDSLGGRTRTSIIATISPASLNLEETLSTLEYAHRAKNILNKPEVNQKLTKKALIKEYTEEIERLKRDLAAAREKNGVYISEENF
Kind of test: In vitro NADH enzyme coupled ATPase assay with purified recombinant human Eg5 (Eg5-405). The test is classed as biochemical. The source says:
FIG. 7 depicts a description of the NADH enzyme coupled ATPase assay used to study the inhibition of the ability of purified human recombinant Eg5 to hydrolyze ATP in the presence and absence of 22C16 and monastrol.
(§1) In vitro NADH Enzyme Coupled A TPase: (variation on Methods Described in Crevel, Lockhart, and Cross. J. Mol. Biol. (1997) 273, 160-170.)
For a brief description as the ATPase assay used in the present example, see FIG. 7.
(§2) A solution containing the microtubule resuspension buffer was supplemented with 1 mM Mg-ATP, 100 uM nicotinamide adenine dinucleotide (NADH), 1 mM phosphoenol pyruvate, 5 ug/ml pyruvate kinase, 7.5 ug/ml lactate dehydrogenase, 0.7 uM resuspended microtubules, and 0.5% dimethylsulfoxide (DMSO).
Next, serial dilutions of the compound 22C16 were prepared in the supplemented microtubule resuspension buffer. Purified recombinant human Eg5 protein was added resulting in a final concentration of 50 uM. The subsequent fluorescent reaction was measured in NUNC black walled 384 well plates at 340 nm using a Wallac plate reader.

For another test, the system named is BS-C-1 cells. Kind of test: Cell assay for formation of mono-astral spindle structures (immunofluorescence, DAPI / anti-alpha-tubulin). The class given is cell-based, monkey. The following applies: for IC50: Primates, BSC-1, BS-C-1 cells, direct comparison, unpublished observations of Mayer and Mitchison, read-out: IC50 (median inhibitory concentration), formation of mono-astral structures. As to the method: When the effects of 22C16 and monastrol on microtubule structure were directly compared, it was shown by examining formation of mono-astral structures that 22C16 has an IC50 (median inhibitory concentration) of approximately 2 uM as compared to the IC50 of approximately 20 uM for monastrol (Mayer and Mitchison, unpublished observations). For experimental details on the cell assay to determine mono-astral structures, see Mayer et al. Science 286:971-974, 1999. Images of live BS-C-1 cells were taken as described (Cramer et al. Curr. Opin. Cell. Biol. 67:82, 1994). Briefly, for immunofluorescence, BS-C-1 cells were stained with DAPI (4′,6-diamidino-2-phenylindole; Sigma-Aldrich) to visualize DNA and anti-α-tubulin (DM1 A; Sigma-Aldrich, St. Louis) to visualize spindle structure.

A further test deals with T2, full length Xenopus Eg5 (Xenopus laevis, UniProt P28025).
T2 construct: Full length Xenopus Eg5 was expressed in baculovirus according to standard protocols; made in house
T2 sequence (P28025 1-1067): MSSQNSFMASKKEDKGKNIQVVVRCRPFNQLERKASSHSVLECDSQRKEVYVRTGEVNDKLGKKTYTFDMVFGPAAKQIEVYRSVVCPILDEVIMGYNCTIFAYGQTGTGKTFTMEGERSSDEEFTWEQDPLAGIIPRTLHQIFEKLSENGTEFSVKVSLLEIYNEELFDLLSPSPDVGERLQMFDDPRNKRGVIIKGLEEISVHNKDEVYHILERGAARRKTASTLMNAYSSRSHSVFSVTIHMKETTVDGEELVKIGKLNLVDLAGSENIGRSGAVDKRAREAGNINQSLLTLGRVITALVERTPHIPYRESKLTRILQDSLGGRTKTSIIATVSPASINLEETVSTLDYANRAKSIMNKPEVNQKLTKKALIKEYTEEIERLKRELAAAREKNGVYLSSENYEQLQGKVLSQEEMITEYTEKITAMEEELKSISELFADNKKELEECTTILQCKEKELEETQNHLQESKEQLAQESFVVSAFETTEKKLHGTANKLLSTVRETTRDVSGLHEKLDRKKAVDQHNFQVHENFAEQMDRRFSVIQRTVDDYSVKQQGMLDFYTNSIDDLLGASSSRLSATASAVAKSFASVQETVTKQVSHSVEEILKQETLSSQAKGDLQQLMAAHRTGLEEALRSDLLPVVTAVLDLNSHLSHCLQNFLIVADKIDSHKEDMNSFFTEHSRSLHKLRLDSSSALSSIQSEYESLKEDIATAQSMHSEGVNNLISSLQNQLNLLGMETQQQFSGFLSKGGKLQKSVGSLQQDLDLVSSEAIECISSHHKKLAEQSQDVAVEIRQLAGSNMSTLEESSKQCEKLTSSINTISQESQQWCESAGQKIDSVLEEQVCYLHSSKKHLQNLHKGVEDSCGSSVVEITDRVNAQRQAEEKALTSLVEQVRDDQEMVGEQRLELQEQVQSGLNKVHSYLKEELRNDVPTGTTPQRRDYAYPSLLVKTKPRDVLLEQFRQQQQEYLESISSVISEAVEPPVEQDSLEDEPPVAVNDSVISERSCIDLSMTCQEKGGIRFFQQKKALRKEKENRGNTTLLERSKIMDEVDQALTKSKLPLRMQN
Kind of test: Microtubule motility driven by full length Xenopus Eg5, with washout. The following applies: full length Xenopus Eg5, washout experiment. The class given is biochemical. As to the method:
FIG. 2 depicts the results of experiments examining the motility activity of full length Xenopus Eg5 with and without the beta-carboline, 22C16.
In addition, the ability of 22C16 to inhibit microtubule motility driven by Eg5 was examined. For experimental protocols and details, see Mayer et al. Science 286:971-974, 1999. […] For the washout, Eg5-driven microtubule motility in the presence of 22C16 was measured. The assay chamber was then depleted of 22C16 and motility was immediately measured again. Therefore, the results of the experiment depicted in FIG. 2 provide direct evidence that 22C16 inhibits the microtubule motility driven by Eg5.

Test [1] concerns the target T3, conventional human kinesin (Homo sapiens, UniProt P33176).
T3 construct: human kinesin (N-terminal 560 amino acids of full length protein followed by 6-His tag at C terminus); made in house; host or cells: E. coli BL21 pLysS (DE3) (the purification section covers Eg5-405 and K560)
T3 sequence (P33176 1-560): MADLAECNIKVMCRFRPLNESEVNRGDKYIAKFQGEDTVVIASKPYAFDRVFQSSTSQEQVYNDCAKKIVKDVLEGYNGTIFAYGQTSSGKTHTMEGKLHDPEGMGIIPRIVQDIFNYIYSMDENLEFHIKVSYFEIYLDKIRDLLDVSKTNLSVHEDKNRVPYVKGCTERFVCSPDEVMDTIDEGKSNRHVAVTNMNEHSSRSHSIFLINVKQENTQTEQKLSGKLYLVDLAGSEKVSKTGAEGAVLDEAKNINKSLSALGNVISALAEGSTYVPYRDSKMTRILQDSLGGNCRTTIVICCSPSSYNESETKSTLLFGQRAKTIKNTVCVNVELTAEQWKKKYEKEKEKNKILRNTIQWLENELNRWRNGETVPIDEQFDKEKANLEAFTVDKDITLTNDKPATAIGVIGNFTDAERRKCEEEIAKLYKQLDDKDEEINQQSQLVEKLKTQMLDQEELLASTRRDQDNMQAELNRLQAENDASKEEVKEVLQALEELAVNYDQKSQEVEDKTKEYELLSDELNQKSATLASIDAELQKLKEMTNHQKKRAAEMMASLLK
Kind of test: NADH enzyme coupled ATPase assay with conventional human kinesin (K560). The test is classed as biochemical. The settings on record: N-terminal 560 amino acids, 6-His tag. As to the method: Since the effect of 22C16 on mono-astral formation in mammalian cells was similar to that of cells treated with monastrol, the ability of 22C16 to inhibit kinesins was examined.
Purification of Eg5-405 and K560 (560 Amino Acid Kinesin Construct):
as §1, §2

A further test deals with BSC1 cells. The class given is cell-based, monkey.

Entries after “also recorded” stand apart in the source; their conditions may differ. Read-outs that look alike come from different tables or passages of the source.

As to `CCOC(=O)C1=C(C)NC(=S)NC1c1cccc(O)c1` (stereo not drawn) [monastrol, reference compound], the IC50 at human Eg5 (purified recombinant human Eg5, microtubules, 1 mM Mg-ATP, read-out: IC50, inhibition of Eg5 ATPase activity) is 5.3 µM; in the test with BS-C-1 cells it was around 20 µM.
In the case of `CCCCN1C(=O)C2Cc3c([nH]c4ccccc34)C(c3cccc(O)c3)N2C1=O` (stereo not drawn) [22C16], the “inhibition of microtubule motility driven by Eg5 (in words)” value against full length Xenopus Eg5 is “acts reversibly to inhibit the motility of Eg5; also recorded: reversibly inhibits microtubule motility”. Also, the “inhibition of ATPase activity of conventional human kinesin (in words)” value in test [1] was “but not conventional human kinesin”. Further, the “effect on Golgi (in words)” value in the test on BSC1 cells is recorded as “fragmented the Golgi; also recorded: fragmentation of the Golgi”. Also, the “effect on interphase microtubules (in words)” value in the test on BSC1 cells is on record as “did not depolymerize interphase microtubules; also recorded: without affecting interphase microtubules”. Moreover, the IC50 at human Eg5 is 1.1 µM; with BS-C-1 cells it was around 2 µM. In addition, on human Eg5 (Eg5 N-terminal 405 amino acids, 6-His tagged), the “inhibition of ATPase activity of human Eg5 (in words)” value is recorded as “block the ATPase activity; also recorded: capable of inhibiting the ATPase activity; also recorded: inhibits the ability of Eg5”. The “potency relative to monastrol in inhibition of ATPase activity of human kinesin Eg5” value at human Eg5 (ratio of IC50 values) was “approximately 5 times”. Also, the “spindle phenotype in mitotic cells (in words)” value in the test with BS-C-1 cells (mitotic mammalian (BSC1) cells) is “caused the formation of monopolar spindles; also recorded: formation of mono-astral spindles; also recorded: capable of arresting cells in mitosis; also recorded: form a mono-astral microtubule array surrounded by a ring of chromosomes”.
Take `CCCCN1C(=O)C2Cc3c([nH]c4ccccc34)C(c3cccc(O)c3)N2C1=O` (stereo not drawn) [trans isomer of monastroline]: the “IC50 lower than monastrol (fold), ATPase assay of Example 2” value at human Eg5 (optically purified trans stereoisomer versus monastrol) is on record as “approximately 8 times”.
